The results in this text go back to BindingDB's records for doi:10.1021/jm970333f (University of Catania, 1998).

This assay can be described thus: Inhibition of [3H]pentazocine binding to sigma-1 sites in guinea pig brain membranes.
`C[C@@H]1[C@@H]2Cc3ccc(O)cc3[C@]1(C)CCN2CCN1CCOCC1` [(2S,6R,11S)-6,11-Dimethyl-3-(2-morpholin-4-yl-ethyl)-1,2,3,4,5,6-hexahydro-2,6-methano-benzo[d]azocin-8-ol] displayed a Ki of 13 nM.
The result for `C[C@@H]1[C@@H]2Cc3ccc(O)cc3[C@]1(C)CCN2CCN(C)c1ccccc1` [(2S,6R,11S)-6,11-Dimethyl-3-[2-(methyl-phenyl-amino)-ethyl]-1,2,3,4,5,6-hexahydro-2,6-methano-benzo[d]azocin-8-ol] reads 5.6 nM; that for `C=CCN1CCC2c3cc(O)ccc3CC1C2C` (configuration not stated) [SK&F-10047], 169 nM.
As for `CCN(CCN1CC[C@@]2(C)c3cc(O)ccc3C[C@H]1[C@H]2C)c1ccccc1` [(2S,6R,11S)-3-[2-(Ethyl-phenyl-amino)-ethyl]-6,11-dimethyl-1,2,3,4,5,6-hexahydro-2,6-methano-benzo[d]azocin-8-ol], the figure is 42 nM.
The result for `C[C@@H]1[C@@H]2Cc3ccc(O)cc3[C@]1(C)CCN2CCN1CCCC1` [(2S,6R,11S)-6,11-Dimethyl-3-(2-pyrrolidin-1-yl-ethyl)-1,2,3,4,5,6-hexahydro-2,6-methano-benzo[d]azocin-8-ol] reads 7.4 nM; that for `CCN(CC)CCN1CC[C@@]2(C)c3cc(O)ccc3C[C@H]1[C@H]2C` [(2S,6R,11S)-3-(2-Diethylamino-ethyl)-6,11-dimethyl-1,2,3,4,5,6-hexahydro-2,6-methano-benzo[d]azocin-8-ol], 15 nM; that for `C[C@@H]1[C@@H]2Cc3ccc(O)cc3[C@]1(C)CCN2CCN1CCCCC1` [(2S,6R,11S)-6,11-Dimethyl-3-(2-piperidin-1-yl-ethyl)-1,2,3,4,5,6-hexahydro-2,6-methano-benzo[d]azocin-8-ol], 9.6 nM.
The compound `C[C@@H]1[C@@H]2Cc3ccc(O)cc3[C@]1(C)CCN2CCNc1ccccc1` [(2S,6R,11S)-6,11-Dimethyl-3-(2-phenylamino-ethyl)-1,2,3,4,5,6-hexahydro-2,6-methano-benzo[d]azocin-8-ol] gave a Ki of 5.9 nM.
As for `C[C@@H]1[C@@H]2Cc3ccc(O)cc3[C@]1(C)CCN2CCN1CCCCCC1` [(2S,6R,11S)-3-(2-Azepan-1-yl-ethyl)-6,11-dimethyl-1,2,3,4,5,6-hexahydro-2,6-methano-benzo[d]azocin-8-ol], the figure is 20 nM; as for `C[C@@H]1[C@@H]2Cc3ccc(O)cc3[C@]1(C)CCN2CCNCc1ccccc1` [(2S,6R,11S)-3-(2-Benzylamino-ethyl)-6,11-dimethyl-1,2,3,4,5,6-hexahydro-2,6-methano-benzo[d]azocin-8-ol], 30 nM.
As for `C[C@@H]1[C@@H]2Cc3ccc(O)cc3[C@]1(C)CCN2CCNC1CCCCC1` [(2S,6R,11S)-3-(2-Cyclohexylamino-ethyl)-6,11-dimethyl-1,2,3,4,5,6-hexahydro-2,6-methano-benzo[d]azocin-8-ol], the figure is 42 nM.
As for `C[C@@H]1[C@@H]2Cc3ccc(O)cc3[C@]1(C)CCN2CCN(C)C` [(2S,6R,11S)-3-(2-Dimethylamino-ethyl)-6,11-dimethyl-1,2,3,4,5,6-hexahydro-2,6-methano-benzo[d]azocin-8-ol], the figure is 20 nM.
